In US6001359A, “Diagnosis of colon carcinoma using monoclonal antibodies to human influx peptide transporter” (Eli Lilly and Company, priority 1997, dated 1999):

Tests used:
[1] = target: T1, influx peptide transporter (Homo sapiens, UniProt Q12864); test: [14C]cephalexin uptake by CHO-K1 transfectant Clone 9 (plasmid pPSJ179); assay type: cell-based
T1 construct: about 120 kDa antigen of MAb PTC13G6
T1 sequence (Q12864 23-832): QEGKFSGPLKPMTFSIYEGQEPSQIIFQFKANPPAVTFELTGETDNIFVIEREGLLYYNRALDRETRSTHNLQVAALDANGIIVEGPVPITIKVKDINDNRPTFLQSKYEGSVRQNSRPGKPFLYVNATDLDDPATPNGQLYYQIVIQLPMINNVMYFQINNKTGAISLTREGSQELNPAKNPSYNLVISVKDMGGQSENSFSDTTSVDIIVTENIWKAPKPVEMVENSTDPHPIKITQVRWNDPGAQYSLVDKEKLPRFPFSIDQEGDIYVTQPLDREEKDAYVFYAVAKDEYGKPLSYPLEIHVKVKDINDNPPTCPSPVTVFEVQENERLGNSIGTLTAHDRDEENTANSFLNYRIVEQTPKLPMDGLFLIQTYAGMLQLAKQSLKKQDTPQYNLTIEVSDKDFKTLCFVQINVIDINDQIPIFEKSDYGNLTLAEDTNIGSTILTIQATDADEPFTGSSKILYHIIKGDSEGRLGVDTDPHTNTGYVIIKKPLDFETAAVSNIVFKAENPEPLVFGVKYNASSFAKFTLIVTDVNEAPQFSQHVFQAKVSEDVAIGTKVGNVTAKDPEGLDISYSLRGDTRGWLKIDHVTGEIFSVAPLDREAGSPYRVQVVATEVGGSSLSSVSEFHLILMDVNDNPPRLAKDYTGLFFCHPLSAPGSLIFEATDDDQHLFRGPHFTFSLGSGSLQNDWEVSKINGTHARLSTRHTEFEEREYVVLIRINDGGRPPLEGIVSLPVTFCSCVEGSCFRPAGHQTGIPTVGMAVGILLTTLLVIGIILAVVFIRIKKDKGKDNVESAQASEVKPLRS
Procedure: (§1) The samples were incubated at room temperature for 20 minutes.

[2] = system: CHO-K1 cells; test: [14C]cephalexin uptake by control CHO-K1 cells (plasmid pRc/RSV); assay type: cell-based, Chinese hamster
Procedure: as §1

CC(C)C[C@H](NC(=O)[C@@H](O)[C@H](N)Cc1ccccc1)C(=O)O [bestatin]
[14C]-Cephalexin Uptake in presence of bestatin ([1]; 1 mM [14C]cephalexin + 15 mM bestatin): 0.42 ± 0.08 nmol/mg total cell protein | effect on uptake of 1 mM cephalexin by the transfectant ([1]; 15 mM bestatin or 25 mM unlabelled cephalexin): inhibited | drug uptake on coincubation, compared with control cells ([1]; coincubation with 1 mM [14C]cephalexin): decreased drug uptake in the representative transfectant (Clone 9) to the level of the control cells | [14C]-Cephalexin Uptake in presence of bestatin ([2]; Control cells, 1 mM [14C]cephalexin + 15 mM bestatin): 0.38 ± 0.08 nmol/mg total cell protein | effect on transport of 1 mM [14C]cephalexin by the control cells ([2]; control cells, bestatin or cephalexin): not inhibited significantly
